Where “and” joins values, the source holds several entries; their conditions need not be identical. Identical values can stand only once.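 Exposure lasted 48 hours, with cells grown in 96-well plates and compounds tested at five concentrations. GI50: concentration for 50% inhibition of growth.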 Calls of active or inactive are those of the source. Cut-off read from the data, not from the text of the source: active = GI50 up to about 1.1 µM and inactive = higher.
Assays:
Assay in all cases: growth of human tumour cells (NCI), 48 h
786-0 = tested on: 786-0
A498 = tested on: A498
A549 = tested on: A549
ACHN = tested on: ACHN
BT-549 = tested on: BT-549
CAKI-1 = tested on: CAKI-1
CCRF-CEM = tested on: CCRF-CEM
COLO 205 = tested on: COLO 205
DU-145 = tested on: DU-145
EKVX = tested on: EKVX
HCC 2998 = tested on: HCC 2998
HCT-116 = tested on: HCT-116
HCT-15 = tested on: HCT-15
HL-60 = tested on: HL-60
HOP-62 = tested on: HOP-62
HOP-92 = tested on: HOP-92
HT-29 = tested on: HT-29
Hs-578T = tested on: Hs-578T
IGROV-1 = tested on: IGROV-1
K562 = tested on: K562
KM12 = tested on: KM12
LOX IMVI = tested on: LOX IMVI
M14 = tested on: M14
MCF7 = tested on: MCF7
MDA-MB-231 = tested on: MDA-MB-231
MDA-MB-435 = tested on: MDA-MB-435
MDA-N = tested on: MDA-N
MOLT-4 = tested on: MOLT-4
Malme-3M = tested on: Malme-3M
NCI-H226 = tested on: NCI-H226
NCI-H23 = tested on: NCI-H23
NCI-H460 = tested on: NCI-H460
NCI-H522 = tested on: NCI-H522
NCI/ADR-RES = tested on: NCI/ADR-RES
OVCAR-3 = tested on: OVCAR-3
OVCAR-4 = tested on: OVCAR-4
OVCAR-5 = tested on: OVCAR-5
OVCAR-8 = tested on: OVCAR-8
PC-3 = tested on: PC-3
RPMI-8226 = tested on: RPMI-8226
RXF 393 = tested on: RXF 393
SF-268 = tested on: SF-268
SF-295 = tested on: SF-295
SF-539 = tested on: SF-539
SK-MEL-28 = tested on: SK-MEL-28
SK-MEL-2 = tested on: SK-MEL-2
SK-MEL-5 = tested on: SK-MEL-5
SK-OV-3 = tested on: SK-OV-3
SN12C = tested on: SN12C
SNB-19 = tested on: SNB-19
SNB-75 = tested on: SNB-75
SR = tested on: SR
SW-620 = tested on: SW-620
T47D = tested on: T47D
TK-10 = tested on: TK-10
U-251 = tested on: U-251
UACC-257 = tested on: UACC-257
UACC-62 = tested on: UACC-62
UO-31 = tested on: UO-31
DLD-1 = tested on: DLD-1
DMS-114 = tested on: DMS-114
DMS-273 = tested on: DMS-273
LXFL 529 = tested on: LXFL 529
M19-MEL = tested on: M19-MEL
SNB-78 = tested on: SNB-78
XF498 = tested on: XF498

SMILES: C=CCSS/C=C/C[S+]([O-])CC=C (configuration not stated) [AJOENE]
- GI50 (786-0): 18.3 µM (inactive)
- GI50 (A498): > 100 µM (inactive)
- GI50 (A549): 61 µM (inactive)
- GI50 (ACHN): 51.1 µM (inactive)
- GI50 (BT-549): 25.6 µM (inactive)
- GI50 (CAKI-1): 26.9 µM (inactive)
- GI50 (CCRF-CEM): 3.44 µM (inactive)
- GI50 (COLO 205): 24.7 µM (inactive)
- GI50 (DU-145): 68.2 µM (inactive)
- GI50 (EKVX): > 100 µM (inactive)
- GI50 (HCC 2998): 63.1 µM (inactive)
- GI50 (HCT-116): 13.1 µM (inactive)
- GI50 (HCT-15): 35.5 µM
- GI50 (HL-60): 5.05 µM (inactive)
- GI50 (HOP-62): > 100 µM (inactive)
- GI50 (HOP-92): 48.3 µM (inactive)
- GI50 (HT-29): 29.9 µM (inactive)
- GI50 (Hs-578T): 26.4 µM (inactive)
- GI50 (IGROV-1): 43.4 µM (inactive)
- GI50 (K562): 5.83 µM (inactive)
- GI50 (KM12): 57.8 µM (inactive)
- GI50 (LOX IMVI): 14.6 µM (inactive)
- GI50 (M14): 20.9 µM (inactive)
- GI50 (MCF7): 44.2 µM (inactive)
- GI50 (MDA-MB-231): 25.2 µM (inactive)
- GI50 (MDA-MB-435): 18.2 µM (inactive)
- GI50 (MDA-N): 18.8 µM (inactive)
- GI50 (MOLT-4): 3.95 µM (inactive)
- GI50 (Malme-3M): 49.2 µM (inactive)
- GI50 (NCI-H226): 41.3 µM (inactive)
- GI50 (NCI-H23): 46.6 µM (inactive)
- GI50 (NCI-H460): 35.8 µM (inactive)
- GI50 (NCI-H522): 16.7 µM (inactive)
- GI50 (NCI/ADR-RES): 26.2 µM (inactive)
- GI50 (OVCAR-3): 37.1 µM (inactive)
- GI50 (OVCAR-4): > 54.8 µM (inactive)
- GI50 (OVCAR-5): 36.6 µM (inactive)
- GI50 (OVCAR-8): 18.5 µM (inactive)
- GI50 (PC-3): 39.1 µM (inactive)
- GI50 (RPMI-8226): 10.4 µM (inactive)
- GI50 (RXF 393): 24.9 µM (inactive)
- GI50 (SF-268): 25 µM (inactive)
- GI50 (SF-295): 58.7 µM (inactive)
- GI50 (SF-539): 25 µM (inactive)
- GI50 (SK-MEL-28): 20.7 µM (inactive)
- GI50 (SK-MEL-2): > 52.2 µM (inactive)
- GI50 (SK-MEL-5): 36.6 µM (inactive)
- GI50 (SK-OV-3): 64 µM (inactive)
- GI50 (SN12C): 26 µM (inactive)
- GI50 (SNB-19): > 100 µM (inactive)
- GI50 (SNB-75): 70 µM (inactive)
- GI50 (SR): 12.4 µM (inactive)
- GI50 (SW-620): 7.8 µM (inactive)
- GI50 (T47D): > 56.1 µM (inactive)
- GI50 (TK-10): > 85.7 µM (inactive)
- GI50 (U-251): 60 µM (inactive)
- GI50 (UACC-257): 50.9 µM (inactive)
- GI50 (UACC-62): 36.3 µM (inactive)
- GI50 (UO-31): 37.8 µM (inactive)

SMILES: CC(=O)Oc1cc2c(cc1OCC(F)(F)F)[C@H]1CC[C@]3(C)[C@@H](OC(C)=O)CC[C@H]3[C@@H]1CC2=O
- GI50 (786-0): 26.4 µM (inactive)
- GI50 (A498): 6.18 µM (inactive)
- GI50 (A549): 17.6 µM (inactive)
- GI50 (ACHN): 18.9 µM (inactive)
- GI50 (BT-549): 18.4 µM (inactive)
- GI50 (CAKI-1): 17.4 µM (inactive)
- GI50 (CCRF-CEM): 15.3 µM (inactive)
- GI50 (COLO 205): 30.8 µM (inactive)
- GI50 (DU-145): 20.7 µM (inactive)
- GI50 (EKVX): 22.8 µM (inactive)
- GI50 (HCC 2998): 16.8 µM (inactive)
- GI50 (HCT-116): 19.3 µM (inactive)
- GI50 (HCT-15): 16.6 µM
- GI50 (HL-60): 13.9 µM (inactive)
- GI50 (HOP-62): 25.1 µM (inactive)
- GI50 (HOP-92): 13.2 µM (inactive)
- GI50 (HT-29): 23.9 µM (inactive)
- GI50 (Hs-578T): 13.7 µM (inactive)
- GI50 (IGROV-1): 18.7 µM (inactive)
- GI50 (K562): 16.6 µM (inactive)
- GI50 (KM12): 27.7 µM (inactive)
- GI50 (LOX IMVI): 15.4 µM (inactive)
- GI50 (M14): 26.4 µM (inactive)
- GI50 (MCF7): 18.9 µM (inactive)
- GI50 (MDA-MB-231): 11.1 µM (inactive)
- GI50 (MDA-MB-435): 21.6 µM (inactive)
- GI50 (MDA-N): 24.1 µM (inactive)
- GI50 (MOLT-4): 15.6 µM (inactive)
- GI50 (Malme-3M): 16.8 µM (inactive)
- GI50 (NCI-H226): 46.6 µM (inactive)
- GI50 (NCI-H23): 21.2 µM (inactive)
- GI50 (NCI-H460): 26.9 µM (inactive)
- GI50 (NCI-H522): 20 µM (inactive)
- GI50 (NCI/ADR-RES): 15.3 µM (inactive)
- GI50 (OVCAR-3): 19.5 µM (inactive)
- GI50 (OVCAR-4): 17.5 µM (inactive)
- GI50 (OVCAR-5): 19.8 µM (inactive)
- GI50 (OVCAR-8): 20.9 µM (inactive)
- GI50 (PC-3): 14.5 µM (inactive)
- GI50 (RPMI-8226): 22.3 µM (inactive)
- GI50 (RXF 393): 13.9 µM (inactive)
- GI50 (SF-268): 21.1 µM (inactive)
- GI50 (SF-295): 25.1 µM (inactive)
- GI50 (SF-539): 19.3 µM (inactive)
- GI50 (SK-MEL-28): 22.2 µM (inactive)
- GI50 (SK-MEL-2): 16.9 µM (inactive)
- GI50 (SK-MEL-5): 17 µM (inactive)
- GI50 (SK-OV-3): 22 µM (inactive)
- GI50 (SN12C): 21 µM (inactive)
- GI50 (SNB-19): 18.8 µM (inactive)
- GI50 (SNB-75): 16 µM (inactive)
- GI50 (SR): 20.7 µM (inactive)
- GI50 (SW-620): 21.7 µM (inactive)
- GI50 (T47D): 23.3 µM (inactive)
- GI50 (TK-10): 17.5 µM (inactive)
- GI50 (U-251): 16.4 µM (inactive)
- GI50 (UACC-257): 18.9 µM (inactive)
- GI50 (UACC-62): 12.2 µM (inactive)
- GI50 (UO-31): 16 µM (inactive)

SMILES: CCC1(O)CC(OC2CC(N(C)C)C(OC3CC4OC5CC(=O)C(C)OC5OC4C(C)O3)C(C)O2)c2c(cc3c(c2O)C(=O)c2c(O)ccc(O)c2C3=O)C1C(=O)OC (configuration not stated)
- GI50 (DLD-1): 0.00792 µM (active)
- GI50 (DMS-114): 0.00575 µM (active)
- GI50 (DMS-273): 0.00365 µM (active)
- GI50 (HOP-92): 0.00624 µM (active)
- GI50 (LOX IMVI): 0.000953 µM (active)
- GI50 (LXFL 529): > 0.01 µM (active)
- GI50 (M14): > 10 nM (active) and 5.62 nM (active)
- GI50 (M19-MEL): 0.00887 µM (active)
- GI50 (NCI-H522): 0.00224 µM (active)
- GI50 (NCI/ADR-RES): 0.00479 µM (active)
- GI50 (OVCAR-3): > 10 nM (active) and 5.92 nM (active)
- GI50 (PC-3): 0.00315 µM (active)
- GI50 (SNB-78): 0.0166 µM (active)
- GI50 (XF498): 0.00828 µM (active)
